The record followed here is patent US20030216569A1, “Method of making HIV protease inhibitors” (priority 1993, published 2003).

In brackets after ≈: the same amount, converted by molar mass.

Assay [1] deals with HIV-1 isolates IIIB and/or RF in CEM cells. Nature of the assay: SRI primary anti-HIV screen, MTT assay of inhibition of HIV-induced cell killing in CEM cells. It counts as cell-based. The conditions noted are these: Human immunodeficiency virus 1, IIIB, CCRF-CEM, read-out: SRI CEM IC50 ng/mL, CEM cells. The procedure: A. Principle of MTT Assay:
This assay involves the conversion of the tetrazolium dye MTT to a colored formazan product by mitochondrial enzymes in metabolically active cells. This assay system is used at SRI to screen over 30,000 compounds per year. Briefly, the assay involves the infection of CEM or MT2 cells in round bottom 96-well plates. The compound of interest is added just prior to infection. Following 6 days of incubation at 37° C. the plates are stained with MTT. The results of the assay are quantitated spectrophotometrically on a Molecular Devices Vmax plate reader. The data are analyzed by linear regression utilizing an in-house software program to calculate antiviral activity (IC25, IC50, IC95) and toxicity (TC25, TC50, TC95) as well as other values.
Primary antiviral assays are routinely performed in CEM or MT-2 cells.
B. Standard Screening Assays in CEM and MT-2 Cells
1. Compound dilution and delivery to the plates
Drugs are solubilized in the appropriate vehicle such as distilled water or DMSO if necessary. Latex gloves, lab coats and masks are used during all phases of the handling process to prevent exposure to potentially harmful agents. The drug is prepared at the appropriate concentration and stored at −20° C. until used by the screening laboratory. The first dilution of each compound is made in a dilution tube with medium to yield a concentration two-fold that of the highest test concentration. Sterile titer tubes are then used to make serial one half-log dilutions of each compound. Following drug dilution, the diluted compound is added to the appropriate well of a 96-well microtiter plate. Up to 12 dilutions can be assayed conveniently in triplicate on a single plate with all appropriate controls including cell control, virus control, toxicity control, drug color control, medium control and plastic (background) control. When testing includes only six dilutions, two drugs can be assayed on a single microtiter plate. The drugs are added to the plate in a final volume of 100 microliters.
During the time the drug dilutions are prepared, cells are washed and counted. Viability is monitored by trypan blue dye exclusion and assays are not performed if the viability falls below 90%. Cells are maintained in an exponential growth phase and are split 1:2 on the day prior to assay to assure exponential growth rate.
For the primary screen, the cell lines utilized are CEM and MT-2. Unless otherwise indicated, the medium used is RPMI 1640 with 10% heat-inactivated fetal calf serum (FBS), glutamine and antibiotics.
Cells are propagated at 37° C. in an atmosphere of 5% CO2 in air. The virus employed for this work is HIV-1 isolates IIIB and/or RF, which are prepared by an acute infection process.
Briefly, virus-infected cells are pelleted on a daily basis beginning at three days post-infection until the virus has killed all of the cells in the culture. Reverse transcriptase activity and p24 ELISA are used to identify pools with the greatest amout of virus.
These 24-hour harvests are pooled, filtered and frozen at −90° C. Prior to use in the assay, the infectious pool of virus is titered on all available cell lines in order to determine the amount of virus required in the antiviral assay.
In general, pools produced by the acute infection method require the addition of one microliter of infectious virus per well resulting in the screening of drugs at a multiplicity of infection of 0.01. In this manner, enough virus is prepared and frozen to complete over one thousand microtiter plates, allowing the testing of up to two thousand compounds from a single stock of infectious virus.
Virus infection of the CEM and MT-2 cells for the antiviral assay is carried out in a bulk infection process.

Assay [2] has as its system Viral SN123 infected CEM cells. The note with it: Human immunodeficiency virus 1, CCRF-CEM, values in parentheses are 35B in same assay; for IC50: read-out: Whole cell IC50 nM, CEM cells.

For the compound `Cc1c(O)cccc1C(=O)NC(CSc1ccc2ccccc2c1)C(O)CN1CC2CCCCC2CC1C(=O)NC(C)(C)C` (stereo not drawn) [Example 24, [3S-(3R*,4aR*,8aR*,2′S*,3′R*)]-2-[2′-Hydroxy-3′-(naphth-2-ylthiomethyl)-4′-aza-5′-oxo-5′-(2″-methyl-3″-hydroxyphenyl)pentyl] decahydroisoquinoline-3-N-t-butylcarboxamide], the IC50 is 67 ng/mL (≈ 0.108 µM) in assay [1] and 25 nM in assay [2].

For `Cc1c(O)cccc1C(=O)N[C@@H](Cc1ccccc1)[C@H](O)CN1CCN(Cc2cccnc2)C[C@H]1C(=O)NC(C)(C)C` [Example 26, [2S-(2R*,2′S*,3′R*)]-1-[2′-Hydroxy-3′-phenylmethyl-4′-aza-5′-oxo-5′-(2″-methyl-3″-hydroxyphenyl)pentyl]-4-(pyrid-3′″-ylmethyl) piperazine-2-N-t-butylcarboxamide], the figures for the IC50 in assay [1] and in assay [2] were 49.7 ng/mL (≈ 0.0866 µM) and 56 nM, respectively. For the same compound, in assay [2] (read-out: Whole cell IC90 nM, CEM cells), the concentration for an effect of 90% (IC90) turned out to be 166 nM.
